# Reference: paper PMC7395821 (Antiviral Research, 2020)
# Columns and labels:
# [1] = test system: eGFP-JEV; experiment: eGFP expression in eGFP-JEV infected BHK-21 cells; format: cell-based, Japanese encephalitis virus; settings: BHK-21, eGFP-JEV MOI 0.1, two-fold dilutions, maximum 3 μM, 72 hpi
# [2] = test system: eGFP-JEV; experiment: eGFP-JEV-based HTS assay in Huh7 cells; format: cell-based, Japanese encephalitis virus; settings: 96-well, cytotoxic and false positive drugs excluded
# [3] = Cytotoxicity assay; format: cell-based; settings: human, Huh7 cells
# [4] = test system: WT-JEV; experiment: Antiviral assay of WT-JEV in Huh7 cells, viral titer by plaque assay; settings: for SI (selective index, ratio of CC50 to EC50): Huh7 cells; for EC50: Japanese encephalitis virus, Huh-7, read-out: EC50 (50% reduction of viral titer)
# [5] = test system: JEV genome RNA; experiment: Real-time RT-PCR of viral RNA in WT-JEV infected Huh7 cells; format: cell-based, Japanese encephalitis virus; settings: WT-JEV MOI 0.5, various dosages, qRT-PCR at 48 hpi
# [6] = test system: WT-JEV; experiment: Time-of-addition assay; format: cell-based, Japanese encephalitis virus; settings: Huh7, WT-JEV MOI 10, 5 μM, titers at 12 hpi
Compound,hit status after HTS and dose-dependent reconfirmation with eGFP-JEV [2],CC50 at 48 h [3] [µM],EC50 [4] [µM],viral RNA copies [5],also measured
C#C[C@@]1(O)[C@H](O)[C@@H](CO)O[C@H]1n1ccc2c(N)ncnc21 [NITD008],,,,,effect on eGFP expression [1]: dose-dependent inhibitory effects
OC(c1cc(C(F)(F)F)nc2c(C(F)(F)F)cccc12)C1CCCCN1 (centres unmarked) [Mefloquine],potent inhibitor of JEV,,,,
CC(C)OC(=O)[C@H](C)N[P@](=O)(OC[C@H]1O[C@@H](n2ccc(=O)[nH]c2=O)[C@](C)(F)[C@@H]1O)Oc1ccccc1 [sofosbuvir],active,,,,
CCOC(=O)C1=C(C)NC(C)=C(C(=O)OCC)C1c1ccccc1/C=C/C(=O)OC(C)(C)C [lacidipine],identified as hits,,,,
COc1c(C)c2c(c(O)c1C/C=C(\C)CCC(=O)O)C(=O)OC2 [mycophenolic acid],identified as hits,,,,
COC(=O)C1=C(C)NC(C)=C(C(=O)OCCN2CCN(C(c3ccccc3)c3ccccc3)CC2)C1c1cccc([N+](=O)[O-])c1 (centres unmarked) [manidipine],identified as hits,,,,
Oc1c(Cl)cc(Cl)c(Cl)c1Cc1c(O)c(Cl)cc(Cl)c1Cl [hexachlorophene],newly discovered inhibitors of JEV,10,0.421,,"SI (selective index, ratio of CC50 to EC50) [4]: > 10"
CCCCCCCCCCCCCCCC[N+](C)(C)C [cetrimonium bromide],newly discovered inhibitors of JEV,7.88,2.23,decreased in a dose-dependent manner,
NC(=O)N1CCC(CC(=O)N2CCC([C@H]3c4ncc(Br)cc4CCc4cc(Cl)cc(Br)c43)CC2)CC1 [lonafarnib],newly discovered inhibitors of JEV,11.4,0.982,decreased in a dose-dependent manner,"effect on virus propagation, compound added pre-infection (-1 to 0 h) [6]: no effect on virus propagation; reduction in viral titer, compound added during viral infection (0-1 h) [6]: 60%; viral titers, compound added post infection (1, 2, 4, 6, 8 h) [6]: significantly reduced; SI (selective index, ratio of CC50 to EC50) [4]: > 10"
"CCCCCCCCCCCCCCCC[n+]1ccccc1 [cetylpyridinium chlorid, cetylpyridinium chloride]",newly discovered inhibitors of JEV,,,decreased in a dose-dependent manner,
O=[N+]([O-])c1ccc(O)c2ncccc12 [nitroxoline],newly discovered inhibitors of JEV,9.29,2.48,decreased in a dose-dependent manner,
CC[C@@H]1/C=C(\C)C[C@H](C)C[C@H](OC)[C@H]2O[C@@](O)(C(=O)C(=O)N3CCCC[C@H]3C(=O)O[C@H](/C(C)=C/[C@@H]3CC[C@H](Cl)[C@H](OC)C3)[C@H](C)[C@@H](O)CC1=O)[C@H](C)C[C@@H]2OC [pimecrolimus],identified as hits,,,,
